According to US20130302344A1, “METHODS AND MEDICAMENTS FOR THE TREATMENT OF GOUT OR PSEUDOGOUT” (TOPOTARGET SWITZERLAND SA, priority 2006, published 2013):
Entries after “also recorded” stand apart in the source; their conditions may differ.

Tests used:
[1] = tested on: mouse peritoneal exudate cells; experiment: TNF production by LPS-treated mouse peritoneal exudate cells (ELISA); type: cell-based; conditions: 200 nM, 1 μg/ml LPS overnight; FIG. 8a
Method: BALB/C mice were intraperitoneally injected with a 4% solution of thioglycollate. Six days later, peritoneal exudate cells (PEC) were collected by washing the peritoneal cavity with phosphate buffer saline. Cells were distributed in wells of tissue culture 12 well plates (10^6 cells/well). Non-adherent cells were washed and adherent cells were treated. with 1 μg/ml of Ultrapure LPS (Invivogen) in the presence or the absence of 200 nM of 17-AAG (Invivogen). (a) After overnight culture, the supernatants were collected and used for determination of TNF by ELISA. (b, c) Fresh medium was added on the cells in the presence or the absence of 2 mM of ATP or 100 μg/ml MSU. After 5 hours, the supernatants were collected and IL-1β was determined by ELISA. (d) Mouse peritoneal macrophages were treated with 500 ng/ml of Ultrapure LPS (Invivogen) in the presence or the absence of 50 nM of 17-DMAG (Invivogen). […] After 4 hours, the supernatants were collected and IL-1β was determined by ELISA. […] After 6 hours, the supernatants were collected and IL-1β was determined by ELISA.
Eight to twelve week-old mice of indicated genotypes were injected i.p. with 4% thioglycollate solution, and macrophages were collected by peritoneal lavage 3-6 days later. […] Caspase-1 was analyzed using an antibody from Santa Cruz Biotechnology (se-514) and ASC using an antibody as described previously^34. […]

[2] = tested on: mouse peritoneal exudate cells; experiment: IL-1β production by mouse peritoneal macrophages (ELISA); type: cell-based
Method: (§1) BALB/C mice were intraperitoneally injected with a 4% solution of thioglycollate. Six days later, peritoneal exudate cells (PEC) were collected by washing the peritoneal cavity with phosphate buffer saline. Cells were distributed in wells of tissue culture 12 well plates (10^6 cells/well). Non-adherent cells were washed and adherent cells were treated. with 1 μg/ml of Ultrapure LPS (Invivogen) in the presence or the absence of 200 nM of 17-AAG (Invivogen). (a) After overnight culture, the supernatants were collected and used for determination of TNF by ELISA. (b, c) Fresh medium was added on the cells in the presence or the absence of 2 mM of ATP or 100 μg/ml MSU. After 5 hours, the supernatants were collected and IL-1β was determined by ELISA. (d) Mouse peritoneal macrophages were treated with 500 ng/ml of Ultrapure LPS (Invivogen) in the presence or the absence of 50 nM of 17-DMAG (Invivogen). 2 hours later, cells were stimulated with 500 μg/ml MSU. After 4 hours, the supernatants were collected and IL-1β was determined by ELISA. (e) Human blood monocytes were treated with 1 μg/ml of Ultrapure LPS (Invivogen) in the presence or the absence of graded doses of 17-DMAG (Invivogen). After overnight culture, cells were stimulated with 100 μg/ml MSU. After 6 hours, the supernatants were collected and IL-1β was determined by ELISA.
Eight to twelve week-old mice of indicated genotypes were injected i.p. with 4% thioglycollate solution, and macrophages were collected by peritoneal lavage 3-6 days later. Cells were plated at the density of 7×10^5 cells in twelve-well dishes and. non-adherent cells were removed after 3 h. Cells were cultured in RPMI complemented with 10% FCS, sodium pyruvate, penicillin/streptomycin and L-glutamin. All cells were stimulated in OptiMEM medium as described above. Caspase-1 was analyzed using an antibody from Santa Cruz Biotechnology (se-514) and ASC using an antibody as described previously^34. The antibody against mouse IL-1β[…]was a gift from Roberto Solari, Glaxo. […]

[3] = tested on: human blood monocytes; experiment: IL-1β production by MSU-stimulated human blood monocytes (ELISA); type: cell-based; conditions: graded doses, LPS overnight, 100 μg/ml MSU 6 h; FIG. 8e
Method: as §1

[4] = tested on: MSU-induced neutrophil recruitment; experiment: MSU crystal-induced aseptic peritonitis, neutrophil recruitment (FACS); type: in vivo, mouse
Method: Aseptic peritonitis was induced in female C57BL/6 mice by injection of 500 μg monosodium urate crystals (MSU) with PBS, 200 μg anakinra (Kineret, Amgen Inc., Thousand Oaks, USA), 200 μg anti-IL-1RI monoclonal antibody (BD Pharmingen, San Jose, USA), 200 μg anti-IL-1α monoclonal antibody (Biolegend, San Diego, USA), 200 μg anti-IL-1β monoclonal antibody ((Biolegend, San Diego, USA), or combination of 200 μg anti-IL-1α monoclonal antibody and 200 μg anti-IL-1β monoclonal antibody. After 6 h, mice were killed and the peritoneal cavity was washed with 10 ml of cold PBS. The lavage fluids were analyzed for neutrophil recruitment by FACS using the neutrophil markers CD11b and Gr1 (Ly-6G). Values are±s.e.m. of total neutrophil counts with 4-5 animals per group, Unpaired Students t test was used to calculate P value. […] The lavage fluids were analyzed for neutrophil recruitment by FACS using the neutrophil markers CD11b and Gr1 (Ly-6G), Values are±s.e.m. of total neutrophil counts with 4-5 animals per group. […] The lavage fluids were analyzed for neutrophil recruitment by FACS using the neutrophil markers CD11b and Gr1 (Ly-6G). […] The lavage fluids were analysed for PMN recruitment by FACS using the neutrophil marker Ly-6G and CD11b (BD Pharmingen).

[5] = tested on: gout; experiment: Case reports of patients with proven gout; type: in vivo, human; conditions: for adverse effects of earlier gout treatments: patient history in cases 1-4, doses as stated per case; for response of gouty arthritis to earlier treatment: cases 3 and 4, prednisone 30 mg daily tapering over 7 days, colchicine 1 mg daily; for response of acute gouty arthritis / recurrence on follow-up: gout patients; for response of acute gouty arthritis: anakinra 100 mg daily for 2-3 days (cases 1-3); for recurrence on follow-up: one to two months after anakinra
Method: Four patients with proven gout were treated with anakinra (Kineret).

[6] = tested on: THP1 cells; experiment: IL-1β maturation in PMA-primed THP1 cells stimulated with crystals or ATP (Western blot); type: cell-based, human
Method: a-c, THP1 cells were stimulated for 6 h with the indicated amounts/ml of MSU crystals (a), CPPD (b) or with 50 μg/ml of pure LPS, MSU, allopurinol crystals, CPPD crystals, diamond crystals, aluminum particles, zymosan, crude preparations of LPS, or 5 mM of extracellular ATP as indicated (c). Supernatants (SN) were analyzed for the presence of mature IL-1β, IL-18 or caspase-1, and cell extracts (Cell) for the presence of proIL-1β and proIL-18. d, human monocytes were stimulated with 50 μg/ml of the indicated crystals for 6 h and analyzed by Western blot for IL-1β activation or by ELISA for released. caspase-1 and IL-1β.
THP1 cells were pre-treated with the P2X antagonist pyridoxal-phosphate-6-azophenyl-2′,4′-disulfonic acid (PPADS, Alexis) for 30 min and subsequently stimulated for 6 h with MSU crystals (50 μg/ml). Supernatants (SN) were analyzed for the presence of mature IL-1β and cell extracts (Cell) for the presence of proIL-1β.
THP1 cells were stimulated with MSU, CPPD or ATP in the presence or absence of colchicine (colch). Maturation of IL-1β was analyzed by Western Blot.
(§2) THP1 were stimulated for 3 h with 0.5 μM of PMA the day before stimulation as described^10. This treatment increases the phagocytic properties of the cells and induces a constitutive production of proIL-1β^33. Human monocytes were purified as described before^30. All cells were stimulated in OptiMEM medium as indicated. Human mature IL-1β was detected with a specific antibody directed. against the cleaved epitope (D116) from Cell Signalling, or with an Enzyme-linked immunoabsorbent assay (ELISA) from BD bioscience. TNF and IL-6 were detected by an ELISA from ImmunoTools and caspase-1 by an ELISA from Alexis. IL-18 was detected. with an antibody from MBL (D044-3) and. Caspase-1 with an antibody from Santa Cruz Biotechnology (sc-622), The antibody against human IL-1β[…] was a gift from Roberto Solari, Glaxo. z-YVAD-fmk was purchased from Alexis Biochemicals. IL-1ra (anakinra, Kineret) was from Amgen (thousand Oaks, USA).

[7] = oral; cited from earlier work
[8] = tested on: MSU-induced inflammation; conditions: intravenous pretreatment; cited from earlier work
[9] = tested on: THP1 cells; experiment: TNF-α production by stimulated THP1 cells (ELISA); type: cell-based, human; conditions: FIG. 5a
Method: (§3) a, THP1 cells were stimulated with MSU, CPPD or Zymosan (Zym) for the indicated, times in the presence or absence of the caspase-1 inhibitor zYVAD-fink. Supernatants were analyzed for TNF-α (gray bars) and IL-1β (black bars) production by ELISA. b, human monocytes were incubated with MSU or CPPD in the presence of two concentrations of IL-1Ra. TNF-α and IL-6 production was monitored by ELISA.
as §2

[10] = tested on: human monocytes; experiment: TNF-α and IL-6 production by human monocytes incubated with MSU or CPPD (ELISA); type: cell-based; conditions: two concentrations of IL-1Ra, FIG. 5b
Method: as §3, §2

C=CCNC1=C2C[C@@H](C)C[C@H](OC)[C@H](O)[C@@H](C)/C=C(\C)[C@H](OC(N)=O)[C@@H](OC)/C=C\C=C(/C)C(=O)NC(=CC1=O)C2=O [17-AAG, 17-(Allylamino)-17-demethoxygeldanamycin]
reduction of TNFα production [1]: less than 50%
production of IL-1β by mouse macrophages stimulated by MSU crystals ([2]; 200 nM, LPS overnight, 100 μg/ml MSU 5 h, FIG. 8c): almost completely inhibited
production of IL-1β by mouse macrophages stimulated by ATP ([2]; 200 nM, LPS overnight, 2 mM ATP 5 h, FIG. 8b): almost completely inhibited

CO[C@H]1/C=C\C=C(/C)C(=O)NC2=CC(=O)C(NCCN(C)C)=C(C[C@@H](C)C[C@H](OC)[C@H](O)[C@@H](C)/C=C(\C)[C@@H]1OC(N)=O)C2=O [17-DMAG, 17-(Dimethylaminoethylamino)-17-demethoxygeldanamycin]
production of IL-1β by human blood monocytes stimulated by MSU crystals [3]: inhibited
neutrophil influx in response to MSU ([4]; female BALB/C mice, 25 mg/kg intraperitoneally 1 h before 500 μg MSU, FIG. 14): reduced
production of IL-1β by mouse macrophages stimulated by MSU crystals ([2]; 50 nM, LPS 2 h, 500 μg/ml MSU 4 h, FIG. 8d): inhibited

Oc1ncnc2[nH]ncc12 [allopurinol]
adverse effects of earlier gout treatments [5]: severe cutaneous reaction; also recorded: acute gout developed after the first dose; also recorded: induced flare-ups of arthritis

CCc1oc2ccccc2c1C(=O)c1cc(Br)c(O)c(Br)c1 [benzbromazone]
adverse effects of earlier gout treatments [5]: renal stones

COc1cc2c(c(OC)c1OC)-c1ccc(OC)c(=O)cc1[C@@H](NC(C)=O)CC2 [colchicine]
IL-1β activation by extracellular ATP ([6]; FIG. 6): did not affect
crystal-induced processing of IL-1β ([6]; MSU or CPPD, pretreatment, FIG. 6): completely blocked
side effects limiting use [7]: nausea and abdominal pain
inflammation after intraarticular MSU injections [8]: greatly reduces inflammation
response of gouty arthritis to earlier treatment [5]: ineffective
adverse effects of earlier gout treatments [5]: rectal bleeding; also recorded: diarrhea
adverse effects of earlier gout treatments ([5]; listed as Colchicine): intolerable diarrhea; also recorded: rapid onset of diarrhea

O=C(O)Cc1ccccc1Nc1c(Cl)cccc1Cl [diclofenac]
adverse effects of earlier gout treatments [5]: gastrointestinal side effects including one episode of G-I hemorrhage

C[C@]12C=CC(=O)C=C1CC[C@@H]1[C@@H]2C(=O)C[C@@]2(C)[C@H]1CC[C@]2(O)C(=O)CO [prednisone]
response of gouty arthritis to earlier treatment [5]: the arthritis remained active

COC(=O)C[C@H](NC(=O)[C@H](C)NC(=O)[C@@H](NC(=O)[C@H](Cc1ccc(O)cc1)NC(=O)OCc1ccccc1)C(C)C)C(=O)CF [zYVAD-fmk]
TNF-α production by the TLR2 agonist Zymosan [9]: without affecting
reduction of TNF-α production induced by MSU and CPPD [9]: more than 50%
MSU-induced IL-1β activation ([6]; MSU crystals, 6 h, FIG. 1a): completely blocked

anakinra: IL-1 receptor type I (IL-1RI) antagonist, IL-1Ra also known as anakinra, marketed under the name Kineret
IL-6 production by human monocytes [10]: significantly affected
TNF-α production by human monocytes [10]: significantly affected
neutrophil influx ([4]; female C57BL/6 mice, 500 μg MSU, 200 μg of each agent, 6 h, FIG. 12): almost entirely prevented
response of acute gouty arthritis [5]: complete resolution of arthritis by the second day; also recorded: responded rapidly
response of acute gouty arthritis ([5]; listed as Anakinra): rapid reduction in joint pain over 48 h
response of acute gouty arthritis ([5]; listed as Anankinra): rapid resolution of signs and symptoms of arthritis
recurrence on follow-up [5]: no recurrence of arthritis; also recorded: asymptomatic two months later
recurrence on follow-up ([5]; listed as Anakinra): No acute flares
recurrence on follow-up ([5]; listed as Anankinra): no further flare-ups
